Laboratory results as given in patent publication US20140066462A1, “TREATMENT OF POLYCYSTIC DISEASE” (Intellikine LLC, priority 2011, published 2014).

Tests used:
mTOR kinase domain = mTOR kinase domain (Homo sapiens, UniProt P42345); assay: in vitro mTOR kinase assay (γ-32P-ATP, purified kinase domain); assay type: biochemical; settings: 10 μM ATP
Method: Purified mTOR kinase domain was incubated with inhibitors at 2- or 4-fold dilutions over a concentration range of 50-0.001 μM or with vehicle (0.1% DMSO) in the presence of 10 μM ATP, 2.5 μCi of γ-32P-ATP and substrate. Reactions were terminated by spotting onto nitrocellulose or phosphocellulose membranes, depending on the substrate; this membrane was then washed 5-6 times to remove unbound radioactivity and dried. Transferred radioactivity was quantified by phosphorimaging and IC50 values were calculated by fitting the data to a sigmoidal dose-response using Prism software.

PI3K (α, β, γ, and δ) = assay: selectivity of kinase inhibition, mTOR versus PI3K; assay type: biochemical; settings: selectivity mTOR over PI3K α
cellular proliferation = assay: inhibition of cellular proliferation; assay type: cell-based
mTOR1/2 signaling = assay: Western blot of kidney crude lysates of treated PKD(V/V) mice; assay type: in vivo; settings: 0.5 mg/kg p.o., kidney lysates 2 hours later
Method: (§1) In order to study mechanisms of selective intervention for treating PKD, PKD(V/V) (“V/V”) mice were used. V/V mice are an animal model of PKD which are homozygous for a mutation in PKD 1 (the gene implicated in 85% of PKD). (Yu S, et al. Proc. Natl. Acad. Sci. U.S.A. 2007; 104: 18688-18693.) These mice develop severe PKD rapidly during the postnatal period. P11 V/V mice were treated with Compound A (0.5 mg/kg; “+”) or vehicle (“−”) p.o. Animals were sacrificed 2 hours later and kidney crude lysates were prepared and subjected to Western blot analysis.
Whole kidneys were isolated from mice and immediately flash frozen. Tissues were ground using a mortar and pestle under a blanket of liquid nitrogen followed by homogenization in lysis buffer. Supernatants were loaded in gels and proteins were separated via electrophoresis. Primary antibodies were used to assess the following proteins: p-Akt (S473), p-Akt (T308), total-Akt, p-4E-BP1, total-4E-BP1, p-S6 ribosomal protein, and total-S6 ribosomal protein.

PKD(V/V) mice [1] = assay: body and kidney mass in PKD(V/V) mice treated P5-P11; assay type: in vivo
Method: as §1
(§2) To examine Compound A effects on kidney size in V/V mice, V/V mice were treated from P5-P11 with either vehicle or Compound A. Compound A dosing was 0.25 mg/kg on P5/P6, then 0.25 mg/kg bid on P7/P8, then 0.5 mg/kg bid on P9-11. Animals were sacrificed 2 hours after […] dose; kidneys were weighed, and one kidney was subjected to western blot and one to sectioning for histology.

PKD(V/V) mice [2] = assay: kidney histology (H&E sections) in PKD(V/V) mice treated P5-P11; assay type: in vivo; settings: P5-P11 dosing
Method: as §2
Sagittal sections of the left kidney from mice treated with vehicle or Compound A were fixed, embedded in paraffin, and sectioned for histological analysis as described in Piontek K B, et. al, (2004) J Am Soc Nephrol 15:3035-33043. Sections were stained with H&E at observed with a microscope at 4×, […], 20×, and 40× magnification. (FIGS. 6-9) Cyst volume was lower and parenchyma was increased in Compound A-treated mice, quantitated using ImageJ software. The number of glomeruli was increased in the Compound A treated section as compared to the vehicle treated section. […] (FIG. 9)

[3] = left kidney sagittal sections, ImageJ

Sequence of mTOR kinase domain (P42345 2156-2469 limits assumed, species assumed): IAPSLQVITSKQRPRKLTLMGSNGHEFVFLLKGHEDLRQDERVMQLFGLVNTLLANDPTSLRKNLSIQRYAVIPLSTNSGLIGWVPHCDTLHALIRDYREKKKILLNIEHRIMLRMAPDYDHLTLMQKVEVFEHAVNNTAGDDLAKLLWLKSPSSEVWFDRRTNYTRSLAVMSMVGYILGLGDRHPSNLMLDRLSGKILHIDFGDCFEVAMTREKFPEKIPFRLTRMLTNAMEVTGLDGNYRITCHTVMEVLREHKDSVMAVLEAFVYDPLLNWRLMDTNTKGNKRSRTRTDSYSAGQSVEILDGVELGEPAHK

SMILES: CC(C)(CO)n1nc(-c2ccc3oc(N)nc3c2)c2c(N)ncnc21 [Compound A]
- IC50 (mTOR kinase domain): < 0.1 µM
- more effective in inhibiting mTOR activity than that of PI3K (α, β, γ, and δ) (PI3K (α, β, γ, and δ)): over 1000 ×
- IC50 (cellular proliferation): 0.01 to 0.1 µM
- Baseline phosphorylation of S6 in wt and mutant mice (mTOR1/2 signaling): markedly attenuated
- S6-RP expression (mTOR1/2 signaling): relatively unaffected
- Akt S473 and T308 phosphorylation (mTOR1/2 signaling; P11 V/V mice): moderately attenuated
- Total Akt (mTOR1/2 signaling; P11 V/V mice): unaffected
- p4E-BP1 in mutant mice (mTOR1/2 signaling; P11 V/V mice): markedly inhibited
- pS6-RP in mutant mice (mTOR1/2 signaling; P11 V/V mice): markedly inhibited
- Baseline phosphorylation and expression of 4E-BP1 in wt mice (mTOR1/2 signaling; wt mice): markedly attenuated
- kidney mass in Het/WT (PKD(V/V) mice [1]; Het/WT mice, P5-P11 dosing, p=0.22): not significantly changed
- normalized kidney mass in Het/WT mice (PKD(V/V) mice [1]; Het/WT mice, P5-P11 dosing, p=0.5): no significant effect
- Body mass in mutant and in Het/WT mice (PKD(V/V) mice [1]; P5-P11, 0.25 mg/kg P5/P6, 0.25 mg/kg bid P7/P8, 0.5 mg/kg bid P9-11, p<0.05): decreased
- Average kidney mass, compared to vehicle treated mutants (PKD(V/V) mice [1]; V/V mutants, P5-P11 dosing, p=0.007): significantly lower
- Normalized kidney mass (combined kidney weight/body weight), compared with vehicle-treated mutants (PKD(V/V) mice [1]; V/V mutants, P5-P11 dosing, p=0.01): significantly lower
- number of glomeruli, compared to the vehicle treated section (PKD(V/V) mice [2]; 20× magnification): increased
- appearance of the glomeruli, compared to the untreated kidney (PKD(V/V) mice [2]; 40× magnification): appeared normal
- Cyst volume (PKD(V/V) mice [2]; [3]): lower
- parenchyma (PKD(V/V) mice [2]; [3]): increased

SMILES: CC(CO)n1nc(-c2ccc3oc(N)nc3c2)c2c(N)ncnc21 (stereo not drawn) [Compound B]
- IC50 (mTOR kinase domain): < 0.1 µM

SMILES: CC(=O)Nc1nc2cc(-c3nn(C(C)C)c4ncnc(N)c34)ccc2o1 [Compound D]
- IC50 (mTOR kinase domain): < 0.1 µM
